Test results reported in patent US20230203025A1, “ENHANCERS OF PARTICULATE GUANYLYL CYCLASE RECEPTOR A” (Mayo Foundation for Medical Education and Research, priority 2020, published 2023).

Tests used:
[1] = tested on: primary human adipocytes (HAs; visceral and subcutaneous); assay: cGMP generation in primary human adipocytes (visceral and subcutaneous); assay type: cell-based
[2] = molecular target: T1, extracellular domain of human pGC-A (Homo sapiens, UniProt P16066); assay: SPR binding of compound 19 to pGC-A extracellular domain (Example 5)
T1 construct: the extracellular domain of human pGC-A was used
T1 sequence (P16066 33-473 limits assumed): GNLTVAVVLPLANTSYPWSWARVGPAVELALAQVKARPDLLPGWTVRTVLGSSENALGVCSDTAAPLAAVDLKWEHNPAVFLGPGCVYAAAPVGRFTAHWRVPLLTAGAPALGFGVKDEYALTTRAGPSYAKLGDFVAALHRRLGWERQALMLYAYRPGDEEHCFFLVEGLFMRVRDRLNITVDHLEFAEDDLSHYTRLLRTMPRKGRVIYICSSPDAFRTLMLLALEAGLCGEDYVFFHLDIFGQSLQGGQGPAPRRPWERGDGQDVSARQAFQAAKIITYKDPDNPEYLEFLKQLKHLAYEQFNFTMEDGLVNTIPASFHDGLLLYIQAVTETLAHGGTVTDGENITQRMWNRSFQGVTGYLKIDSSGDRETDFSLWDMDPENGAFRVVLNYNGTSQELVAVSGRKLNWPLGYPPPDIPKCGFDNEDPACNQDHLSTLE
Protocol: Binding Studies of compound 19 to Human pGC-A Receptor: Surface plasmon resonance (SPR) binding analysis was performed by employing the highly sensitive Biosensing Instrument 4500 system for small molecule binding. For these studies the extracellular domain of human pGC-A was used together with compound 19 at increasing concentrations.

[3] = tested on: human visceral adipocytes; assay: browning and glycerol production in human visceral adipocytes; assay type: cell-based
[4] = plasma stability, human; assay type: in vitro ADME
[5] = LogD; assay type: physicochemical; details: pH 7.4
[6] = molecular target: T2, particulate guanylyl cyclase B receptor (pGC-B) (Homo sapiens, UniProt P20594); assay: cGMP selectivity assay in HEK cells overexpressing pGC-B with CNP; assay type: cell-based; details: in the presence of CNP
T2 construct: expressed in transfected cells; host or cells: HEK
T2 sequence (P20594 23-1047): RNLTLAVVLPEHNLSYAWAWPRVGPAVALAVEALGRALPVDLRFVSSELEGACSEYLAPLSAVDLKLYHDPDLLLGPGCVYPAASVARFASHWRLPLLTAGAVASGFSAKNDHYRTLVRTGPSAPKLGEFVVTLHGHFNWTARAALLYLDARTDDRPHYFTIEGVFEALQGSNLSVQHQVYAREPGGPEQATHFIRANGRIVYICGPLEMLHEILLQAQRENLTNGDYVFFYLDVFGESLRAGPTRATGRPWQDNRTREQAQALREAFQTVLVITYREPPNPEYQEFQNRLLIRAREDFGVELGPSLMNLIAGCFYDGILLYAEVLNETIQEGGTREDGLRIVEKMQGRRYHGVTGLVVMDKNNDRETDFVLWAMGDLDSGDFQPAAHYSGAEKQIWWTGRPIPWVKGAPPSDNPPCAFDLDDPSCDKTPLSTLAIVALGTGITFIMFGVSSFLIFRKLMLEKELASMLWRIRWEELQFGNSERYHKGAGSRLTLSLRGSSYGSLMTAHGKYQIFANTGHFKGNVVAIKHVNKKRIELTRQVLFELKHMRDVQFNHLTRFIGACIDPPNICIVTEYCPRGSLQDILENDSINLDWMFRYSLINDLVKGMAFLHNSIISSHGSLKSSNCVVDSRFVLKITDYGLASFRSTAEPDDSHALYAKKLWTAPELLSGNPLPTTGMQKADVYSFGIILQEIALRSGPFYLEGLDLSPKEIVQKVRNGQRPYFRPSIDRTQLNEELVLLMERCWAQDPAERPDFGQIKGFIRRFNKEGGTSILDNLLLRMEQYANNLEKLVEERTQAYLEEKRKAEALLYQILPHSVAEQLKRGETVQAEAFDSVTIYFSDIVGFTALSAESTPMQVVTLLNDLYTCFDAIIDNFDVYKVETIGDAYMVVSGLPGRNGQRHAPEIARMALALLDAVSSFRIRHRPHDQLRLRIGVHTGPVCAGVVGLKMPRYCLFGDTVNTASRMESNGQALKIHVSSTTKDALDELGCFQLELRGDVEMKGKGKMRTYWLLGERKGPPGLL

[7] = pharmacokinetics after IV and PO dosing; assay type: in vivo, mouse; details: plasma
[8] = plasma stability, mouse; assay type: in vitro ADME

binding to human pGC-A ([2]; Response (RU) increasing with concentration): clearly validated
Kd ([2]; compound 2.5 to 20 μM with 0.25 μM pGC-A receptor extracellular domain): 4.1 µM
Plasma Stability (% remaining at 1 h) [4]: 107.4%
logD [5]: 3.04
cGMP activity in cells expressing pGC-B [6]: devoid of cGMP activity
clearance ([7]; Mean IV, mouse, 5 mg/kg): 20.3 mL/min/kg
Vd ([7]; Mean IV, mouse, 5 mg/kg, read-out: Vdss): 16.8 L/kg
Cmax ([7]; Mean PO, Mouse, 10 mg/kg): 605 ng/mL
half-life ([7]; Mean PO, Mouse, 10 mg/kg): 9.13 h
AUC ([7]; Mean PO, Mouse, 10 mg/kg, read-out: Exposure (AUC)): 7100 ng·h/mL
bioavailability ([7]; Mouse, PO 10 mg/kg vs IV 5 mg/kg): 107%
Plasma Stability (% remaining at 1 h) [8]: 109.7%
SMILES: CN(C)CCN1CCCC(C(=O)Nc2nc3c(F)cc(F)cc3s2)C1 (stereo not shown) [Compound 19]
cGMP generation ([1]; HAs, 1, 5 and 10 μM compound in the presence of ANP (10^−10 M)): clear increase in cGMP generation
cGMP generation ([1]; HAs, compound alone at similar dose, no ANP): did not generate cGMP generation
expression of the browning protein UCP1 ([3]; compound 19 added to ANP): augmented UCPI expression
ANP induction of glycerol ([3]; compound 19 with ANP, not illustrated): dose dependently increased
